US8519145B2, “Aryl compounds as PPAR ligands and their use” (Seoul National University Industry Foundation, priority 2006, dated 2013)
Like-named read-outs stand apart in the source and are kept apart here.

Experiments:
[1] = target: T1, hPPARδ (Homo sapiens, UniProt Q03181); test: Transfection assay (luciferase reporter), PPARδ; type: cell-based; settings: CV-1 cells, full length PPAR plasmid, 24 hours
T1 construct: Full length PPARs plasmid DNA; expressed in transfected cells; host or cells: CV-1 cells
T1 sequence (Q03181 1-441): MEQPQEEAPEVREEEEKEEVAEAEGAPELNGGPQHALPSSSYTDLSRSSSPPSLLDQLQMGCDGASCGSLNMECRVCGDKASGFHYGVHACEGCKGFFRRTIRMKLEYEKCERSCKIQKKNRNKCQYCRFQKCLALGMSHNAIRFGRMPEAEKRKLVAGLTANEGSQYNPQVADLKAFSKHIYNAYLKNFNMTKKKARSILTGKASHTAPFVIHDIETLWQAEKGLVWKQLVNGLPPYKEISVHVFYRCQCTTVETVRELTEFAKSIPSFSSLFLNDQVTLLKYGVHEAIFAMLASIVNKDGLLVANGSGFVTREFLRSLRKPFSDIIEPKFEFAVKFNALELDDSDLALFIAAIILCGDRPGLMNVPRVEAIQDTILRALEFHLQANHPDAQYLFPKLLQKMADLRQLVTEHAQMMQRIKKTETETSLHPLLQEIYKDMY
Procedure: (§1) The PPARδ activity of the compound represented by formula (I) of the present invention was confirmed by transfection assay. In addition, the selectivity to PPAR subtypes, PPARα and PPARγ was examined. Cytotoxicity was tested by MTT assay and in vivo activity was investigated by animal experiment.
(§2) CV-1 cells were used in this assay. The cells were inoculated in a 96-well plate containing DMEM supplemented with 10% FBS, DBS (delipidated) and 1% penicillin/streptomycin and cultured in a 37° C., 5% CO2 incubator. The experiment was performed according to the steps of inoculation, transfection, sample treatment and confirmation. Particularly, CV-1 cells were inoculated in a 96 well-plate (5000 cells/well), followed by transfection 24 hours later. Full length PPARs plasmid DNA, reporter DNA confirming PPARs activity owing to its luciferase activity, β-galactosidase DNA providing information on transfection efficiency, and transfection reagent were used for the transfection. Samples were dissolved in dimethylsulfoxide (DMSO), which were treated to the cells via media at different concentrations. After culturing the cells in the incubator for 24 hours, the cells were lysed by using lysis buffer. Luciferase activity and β-galactosidase activity were measured with Luminometer and a microplate reader. The obtained values of luciferase were modified by the values of β-galactosidase. A graph was made with those values and EC50 was calculated.

[2] = target: T2, hPPARα (Homo sapiens, UniProt Q07869); test: Transfection assay (luciferase reporter), PPARα; type: cell-based; settings: CV-1 cells, full length PPAR plasmid, 24 hours
T2 construct: Full length PPARs plasmid DNA; expressed in transfected cells; host or cells: CV-1 cells
T2 sequence (Q07869 1-468): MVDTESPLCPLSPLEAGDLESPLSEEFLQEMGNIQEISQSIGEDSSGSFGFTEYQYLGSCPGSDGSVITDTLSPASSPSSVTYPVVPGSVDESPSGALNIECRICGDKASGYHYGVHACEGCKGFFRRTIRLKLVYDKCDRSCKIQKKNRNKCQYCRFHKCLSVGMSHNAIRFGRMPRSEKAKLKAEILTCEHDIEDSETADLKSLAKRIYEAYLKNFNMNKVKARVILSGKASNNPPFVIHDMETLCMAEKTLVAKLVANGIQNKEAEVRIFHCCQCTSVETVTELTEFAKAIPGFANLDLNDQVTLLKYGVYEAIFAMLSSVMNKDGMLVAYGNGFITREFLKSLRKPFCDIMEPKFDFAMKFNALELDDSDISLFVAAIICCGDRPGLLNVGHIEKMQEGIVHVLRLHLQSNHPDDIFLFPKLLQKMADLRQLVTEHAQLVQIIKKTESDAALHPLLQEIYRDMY
Procedure: as §1, §2

[3] = target: T3, hPPARγ (Homo sapiens, UniProt P37231); test: Transfection assay (luciferase reporter), PPARγ; type: cell-based; settings: CV-1 cells, full length PPAR plasmid, 24 hours
T3 construct: Full length PPARs plasmid DNA; expressed in transfected cells; host or cells: CV-1 cells
T3 sequence (P37231 1-505): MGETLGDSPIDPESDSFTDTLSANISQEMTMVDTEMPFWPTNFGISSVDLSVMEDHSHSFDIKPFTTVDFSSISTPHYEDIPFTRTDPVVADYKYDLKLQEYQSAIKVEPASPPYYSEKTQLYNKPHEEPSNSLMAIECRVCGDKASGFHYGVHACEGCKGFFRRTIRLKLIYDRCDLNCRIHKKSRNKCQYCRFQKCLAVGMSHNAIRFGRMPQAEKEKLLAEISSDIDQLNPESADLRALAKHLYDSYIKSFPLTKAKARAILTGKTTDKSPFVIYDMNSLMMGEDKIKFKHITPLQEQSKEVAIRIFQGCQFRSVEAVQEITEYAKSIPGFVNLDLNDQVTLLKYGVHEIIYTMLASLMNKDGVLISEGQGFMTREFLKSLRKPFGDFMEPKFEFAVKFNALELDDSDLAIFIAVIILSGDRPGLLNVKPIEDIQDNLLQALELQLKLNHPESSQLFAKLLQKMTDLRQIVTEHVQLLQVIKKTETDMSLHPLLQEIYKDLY
Procedure: as §1, §2

[4] = target: T1, hPPARδ; settings: literature, cited from earlier work

Row | Compound | EC50 [1] | EC50 hPPARα [2] | EC50 hPPARγ [3] | EC50 ([4]; human PPARδ) | selectivity to hPPARδ over PPARα or PPARγ [4]
1 | Cc1cc(SC(Cc2c(F)cccc2C(F)(F)F)c2ccc(-c3ccccc3)cc2)ccc1OCC(=O)O (centres unmarked) [Compound 66] | 33 nM | ia | ia |  | 
2 | Cc1cc(SC(Cc2ccccc2)c2ccc(-c3ccc(C(F)(F)F)cc3)cc2)ccc1OC(C)(C)C(=O)O (centres unmarked) [Compound 22] | 9.3 nM | ia | ia |  | 
3 | CCCc1c(OCCCOc2ccc(OCC(=O)O)cc2)ccc(C(C)=O)c1O [Compound L-165041] |  |  |  | 530 nM | 10 times
4 | Cc1cc([Se]Cc2ccc(-c3ccc(C(F)(F)F)cc3)cc2)ccc1OCC(=O)O [Compound S306] | 53 nM | ia | ia |  | 
5 | CCC(Oc1ccc(SC(Cc2ccccc2)c2ccc(-c3ccc(C(F)(F)F)cc3)cc2)cc1C)C(=O)O (centres unmarked) [Compound 23] | 12 nM | ia | ia |  | 
6 | Cc1cc([Se]C(Cc2ccccc2)c2ccc(-c3ccc(C(F)(F)F)cc3)cc2)ccc1OCC(=O)O (centres unmarked) [Compound S164] | 4.5 nM | ia | ia |  | 
